# Test results published in patent US9113629B2, “4-amino-6-(4-substituted-phenyl)-picolinates and 6-amino-2-(4-substituted-phenyl)-pyrimidine-4-carboxylates and their use as herbicides” (DOW AGROSCIENCES LLC, priority 2013, dated 2015).
# Legend:
# Type in all cases: in vivo
# [1] = tested on: HELAN: sunflower (Helianthus annuus); experiment: Post-emergent Test I herbicidal activity; settings: post-emergence, 336 h, read-out: Visual Growth Reduction (%) 14 Days After Application, HELAN; for pest or weed control at 4040 g/ha: 4.04 kg ai/ha; for pest or weed control at 4000 g/ha: 4 kg ai/ha
# Protocol: (§1) Post-emergent Test I Seeds test species were obtained from commercial suppliers and planted into a 13 cm diameter-round pot containing soil-less media mix (metro-mix 360®, Sun Gro Horticulture). Postemergence treatments were planted 8-12 days prior to application and cultured in a greenhouse equipped with supplemental light sources to provide a 16 h photoperiod at 24-29° C. All pots were surface irrigated.
# (§2) A weighted amount, determined by the highest rate to be tested, of each compound was dissolved in 1.3 mL acetone-DMSO (97:3, v/v) and diluted with 4.1 mL water-isopropanol-crop oil concentrate (78:20:2, v/v/v) containing 0.02% Triton X-155 to obtain concentrated stock solutions. Additional application rates were obtained by serial dilution of the high rate solution into a solution containing appropriate volume of 97:3 v/v mixture of acetone and DMSO and appropriate volume of an aqueous mixture of water, isopropyl alcohol, crop oil concentrate (78:20:2, v/v/v) containing 0.02% Triton X-155.
# (§3) Formulated compounds were applied using a DeVilbiss® compressed air sprayer at 2-4 psi. Following treatment, pots were returned to the greenhouse for the duration of the experiment. All pots were sub-irrigated as need to provide optimum growing conditions. All pots were fertilized one time per week by subirrigating with Peters Peat-Lite Special® fertilizer (20-10-20).
# (§4) […] All evaluations were made visually on a scale of 0 to 100 where 0 represents no activity and 100 represents complete plant death. Visual assessments of plant injury were made based on growth reduction, discoloration, leaf deformity and necrosis.
# [2] = tested on: ECHCG: barnyardgrass (Echinochloa crus-galli); experiment: Post-emergent Test I herbicidal activity; settings: post-emergence, 336 h, read-out: Visual Growth Reduction (%) 14 Days After Application, ECHCG; for pest or weed control at 4040 g/ha: 4.04 kg ai/ha; for pest or weed control at 4000 g/ha: 4 kg ai/ha
# Protocol: as §1, §2, §3, §4
# [3] = tested on: SETFA: giant foxtail (Setaria faberi); experiment: Post-emergent Test I herbicidal activity; settings: post-emergence, 336 h, read-out: Visual Growth Reduction (%) 14 Days After Application, SETFA; for pest or weed control at 4040 g/ha: 4.04 kg ai/ha; for pest or weed control at 4000 g/ha: 4 kg ai/ha
# Protocol: as §1, §2, §3, §4
# [4] = tested on: IPOHE: ivyleaf morningglory (Ipomoea hederecea); experiment: Post-emergent Test I herbicidal activity; settings: post-emergence, 336 h, read-out: Visual Growth Reduction (%) 14 Days After Application, IPOHE; for pest or weed control at 4040 g/ha: 4.04 kg ai/ha; for pest or weed control at 4000 g/ha: 4 kg ai/ha
# Protocol: as §1, §2, §3, §4
# [5] = tested on: AVEFA: wild oats (Avena fatua); experiment: Post-emergent Test I herbicidal activity; settings: post-emergence, 336 h, read-out: Visual Growth Reduction (%) 14 Days After Application, AVEFA; for pest or weed control at 4000 g/ha: 4 kg ai/ha
# Protocol: as §1, §2, §3, §4
# [6] = tested on: HELAN: sunflower (Helianthus annuus); experiment: Pre-emergent Test I herbicidal activity; settings: pre-emergence, 336 h, read-out: Visual Growth Reduction (%) 14 Days After Application, HELAN; for pest or weed control at 4040 g/ha: 4.04 kg ai/ha; for pest or weed control at 4000 g/ha: 4 kg ai/ha
# Protocol: (§5) Pre-emergent Test I Seeds of test species were planted into round plastic pots (5-inch diameter) containing sandy loam soil. After planting, all pots were sub-irrigated 16 h prior to compound application. Compounds were dissolved in a 97:3 v/v (volume/volume) mixture of acetone and dimethyl sulfoxide (DMSO) and diluted to the appropriate concentration in a final application solution containing water, acetone, isopropanol, DMSO and Agri-dex (crop oil concentrate) in a 59:23:15:1.0:1.5 v/v ratio and 0.02% w/v (weight/volume) of Triton X-155 to obtain the spray solution containing the highest application rate. Additional application rates were obtained by serial dilution of the high rate solution with the above application solution. Formulated compound (2.7 mL) was applied pipetted evenly over the soil surface followed by incorporation with water (15 mL). Following treatment, pots were returned to the greenhouse for the duration of the experiment. The greenhouse was programmed for an approximate 15 h photoperiod which was maintained at about 23-29° C. during the day and 22-28° C. during the night. Nutrients and water were added on a regular basis through surface irrigation and supplemental lighting was provided with overhead metal halide 1000-Watt lamps as necessary. Herbicidal effect ratings were obtained 14 days after treatment. All evaluations were made relative to appropriate controls on a scale of 0 to 100 where 0 represents no herbicidal effect and 100 represents plant death or lack of emergence from the soil.
# [7] = tested on: ECHCG: barnyardgrass (Echinochloa crus-galli); experiment: Pre-emergent Test I herbicidal activity; settings: pre-emergence, 336 h, read-out: Visual Growth Reduction (%) 14 Days After Application, ECHCG; for pest or weed control at 4040 g/ha: 4.04 kg ai/ha; for pest or weed control at 4000 g/ha: 4 kg ai/ha
# Protocol: as §5
# [8] = tested on: SETFA: giant foxtail (Setaria faberi); experiment: Pre-emergent Test I herbicidal activity; settings: pre-emergence, 336 h, read-out: Visual Growth Reduction (%) 14 Days After Application, SETFA; for pest or weed control at 4040 g/ha: 4.04 kg ai/ha; for pest or weed control at 4000 g/ha: 4 kg ai/ha
# Protocol: as §5
# [9] = tested on: IPOHE: ivyleaf morningglory (Ipomoea hederecea); experiment: Pre-emergent Test I herbicidal activity; settings: pre-emergence, 336 h, read-out: Visual Growth Reduction (%) 14 Days After Application, IPOHE; for pest or weed control at 4040 g/ha: 4.04 kg ai/ha; for pest or weed control at 4000 g/ha: 4 kg ai/ha
# Protocol: as §5
# [10] = tested on: AVEFA: wild oats (Avena fatua); experiment: Pre-emergent Test I herbicidal activity; settings: pre-emergence, 336 h, read-out: Visual Growth Reduction (%) 14 Days After Application, AVEFA; for pest or weed control at 4000 g/ha: 4 kg ai/ha
# Protocol: as §5
# [11] = tested on: AMARE: redroot pigwseed (Amaranthus retroflexus); experiment: Post-emergent Test I herbicidal activity; settings: post-emergence, read-out: Visual Growth Reduction (%), AMARE
# Protocol: as §1, §2, §3, §4
# [12] = tested on: AMARE: redroot pigwseed (Amaranthus retroflexus); experiment: Pre-emergent Test I herbicidal activity; settings: pre-emergence, 336 h, 2 kg ai/ha, read-out: Visual Growth Reduction (%) 14 Days After Application, AMARE
# Protocol: as §5
smiles,measurement,setting,value
C=Cc1c(C(=O)O)nc(-c2ccc(Cl)c(F)c2)c(F)c1N [Compound 214],pest or weed control at 4040 g/ha,[1],95 to 100%
same,pest or weed control at 4040 g/ha,[2],95 to 100%
same,pest or weed control at 4040 g/ha,[3],85 to 94%
same,pest or weed control at 4040 g/ha,[4],95 to 100%
same,pest or weed control at 4040 g/ha,[5]; 4.04 kg ai/ha,60 to 74%
same,pest or weed control at 4040 g/ha,[6],95 to 100%
same,pest or weed control at 4040 g/ha,[7],95 to 100%
same,pest or weed control at 4040 g/ha,[8],95 to 100%
same,pest or weed control at 4040 g/ha,[9],95 to 100%
same,pest or weed control at 4040 g/ha,[10]; 4.04 kg ai/ha,85 to 94%
"COC(=O)c1nc(-c2ccc(Br)c(F)c2F)c(F)c(N)c1Cl [Compound 109, methyl 4-amino-6-(4-bromo-2,3-difluorophenyl)-3-chloro-5-fluoropicolinate]",pest or weed control at 4000 g/ha,[1],95 to 100%
same,pest or weed control at 4000 g/ha,[2],95 to 100%
same,pest or weed control at 4000 g/ha,[3],95 to 100%
same,pest or weed control at 4000 g/ha,[4],85 to 94%
same,pest or weed control at 4000 g/ha,[5],75 to 84%
same,pest or weed control at 4000 g/ha,[6],75 to 84%
same,pest or weed control at 4000 g/ha,[7],95 to 100%
same,pest or weed control at 4000 g/ha,[8],95 to 100%
same,pest or weed control at 4000 g/ha,[9],95 to 100%
same,pest or weed control at 4000 g/ha,[10],85 to 94%
Nc1c(F)c(-c2ccc(Br)c(F)c2F)nc(C(=O)O)c1Cl [Compound 147],pest or weed control at 3960 g/ha,[1]; 3.96 kg ai/ha,95 to 100%
same,pest or weed control at 3960 g/ha,[2]; 3.96 kg ai/ha,95 to 100%
same,pest or weed control at 3960 g/ha,[3]; 3.96 kg ai/ha,95 to 100%
same,pest or weed control at 3960 g/ha,[11]; 3.96 kg ai/ha,95 to 100%
same,pest or weed control at 3960 g/ha,[4]; 3.96 kg ai/ha,95 to 100%
same,pest or weed control at 3960 g/ha,[5]; 3.96 kg ai/ha,75 to 84%
same,pest or weed control at 3960 g/ha,[6]; 3.96 kg ai/ha,95 to 100%
same,pest or weed control at 3960 g/ha,[7]; 3.96 kg ai/ha,95 to 100%
same,pest or weed control at 3960 g/ha,[8]; 3.96 kg ai/ha,95 to 100%
same,pest or weed control at 3960 g/ha,[9]; 3.96 kg ai/ha,95 to 100%
same,pest or weed control at 3960 g/ha,[10]; 3.96 kg ai/ha,95 to 100%
N#Cc1ccc(-c2nc(C(=O)O)c(Cl)c(N)c2F)cc1 [Compound 39],pest or weed control at 2000 g/ha,[1]; 2 kg ai/ha,95 to 100%
same,pest or weed control at 2000 g/ha,[2]; 2 kg ai/ha,85 to 94%
same,pest or weed control at 2000 g/ha,[11]; 2 kg ai/ha,95 to 100%
same,pest or weed control at 2000 g/ha,[4]; 2 kg ai/ha,60 to 74%
same,pest or weed control at 2000 g/ha,[5]; 2 kg ai/ha,75 to 84%
same,pest or weed control at 2000 g/ha,[6]; 2 kg ai/ha,95 to 100%
same,pest or weed control at 2000 g/ha,[7]; 2 kg ai/ha,95 to 100%
same,pest or weed control at 2000 g/ha,[12],95 to 100%
same,pest or weed control at 2000 g/ha,[9]; 2 kg ai/ha,95 to 100%
same,pest or weed control at 2000 g/ha,[10]; 2 kg ai/ha,85 to 94%
COC(=O)c1nc(-c2cccc(F)c2F)c(F)c(N)c1Cl [Compound 199],pest or weed control at 4000 g/ha,[1],95 to 100%
same,pest or weed control at 4000 g/ha,[2],60 to 74%
same,pest or weed control at 4000 g/ha,[3],85 to 94%
same,pest or weed control at 4000 g/ha,[11]; 4 kg ai/ha,95 to 100%
same,pest or weed control at 4000 g/ha,[4],75 to 84%
same,pest or weed control at 4000 g/ha,[6],60 to 74%
same,pest or weed control at 4000 g/ha,[7],0 to 29%
same,pest or weed control at 4000 g/ha,[8],45 to 59%
same,pest or weed control at 4000 g/ha,[9],75 to 84%
COC(=O)c1nc(-c2ccccc2F)c(F)c(N)c1Cl [Compound 206],pest or weed control at 4040 g/ha,[1],95 to 100%
same,pest or weed control at 4040 g/ha,[2],0 to 29%
same,pest or weed control at 4040 g/ha,[3],0 to 29%
same,pest or weed control at 4040 g/ha,[11]; 4.04 kg ai/ha,95 to 100%
same,pest or weed control at 4040 g/ha,[4],75 to 84%
same,pest or weed control at 4040 g/ha,[6],95 to 100%
same,pest or weed control at 4040 g/ha,[7],0 to 29%
same,pest or weed control at 4040 g/ha,[8],75 to 84%
same,pest or weed control at 4040 g/ha,[9],95 to 100%
Nc1c(F)c(-c2ccc(Br)cc2)nc(C(=O)O)c1Cl [Compound 20],pest or weed control at 4000 g/ha,[1],95 to 100%
same,pest or weed control at 4000 g/ha,[2],95 to 100%
same,pest or weed control at 4000 g/ha,[3],95 to 100%
same,pest or weed control at 4000 g/ha,[4],85 to 94%
same,pest or weed control at 4000 g/ha,[5],75 to 84%
same,pest or weed control at 4000 g/ha,[6],95 to 100%
same,pest or weed control at 4000 g/ha,[7],95 to 100%
same,pest or weed control at 4000 g/ha,[8],95 to 100%
same,pest or weed control at 4000 g/ha,[9],95 to 100%
same,pest or weed control at 4000 g/ha,[10],95 to 100%
